The results in this text go back to ChEMBL document CHEMBL1201862, “PubChem BioAssay data set” (2004).

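Assay format: 96-well plates, 48-hour exposure. The concentration for 50% growth inhibition is given as GI50.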 Active and inactive are the calls of the source. Cut-off read from the data, not from the text of the source: active = GI50 up to about 1.1 µM and inactive = higher. Some results are limits rather than exact numbers.

Common to all, as to assay: inhibition of tumour cell growth, NCI panel, 48 h
The test system of assay [1] is HOP-62.
For assay [2], the system named is MOLT-4.
Assay [3] has as its system IGROV-1.
Assay [4] has as its system CCRF-CEM.
In assay [5] the test system is UACC-257.
Assay [6] deals with SK-MEL-28.
In assay [7] the test system is RPMI-8226.
The test system of assay [8] is SK-MEL-2.
The test system of assay [9] is UACC-62.
The test system of assay [10] is SF-539.
The test system of assay [11] is UO-31.
Assay [12] deals with OVCAR-3.
Assay [13] relates to TK-10.
Assay [14] has as its system SN12C.
The subject of assay [15] is OVCAR-5.
The subject of assay [16] is U-251.
Assay [17] has as its system HT-29.
Assay [18] concerns SK-MEL-5.
In assay [19] the test system is HOP-92.

`C[Si](C)(c1ccccc1)C1CC(=O)CC(=O)C1`: the GI50 was > 100 µM (inactive) in [1]; > 100 µM (inactive) in assay [2]; 22.7 µM (inactive) in assay [3]; 38.4 µM (inactive) in assay [4]; > 100 µM (inactive) in [5]; > 100 µM (inactive) in [6]. For the same molecule, the GI50 is > 100 µM (inactive) in assay [7]; > 100 µM (inactive) in assay [8]; > 100 µM (inactive) in assay [9]; 19.3 µM (inactive) in [10]; 19.9 µM (inactive) in assay [11]; > 100 µM (inactive) in assay [12]. In addition, the GI50 in assay [13], in assay [14], in assay [15], in [16], in [17] and in assay [18] was > 100 µM (inactive) throughout.
On to `COC(=O)C(C(=O)C(=O)Nc1ccc(C(F)(F)F)cc1[N+](=O)[O-])c1csc(-n2nc(-c3ccccc3)cc2-c2ccccc2)n1` (stereo unspecified), for which the GI50 in assay [1], in [2], in [3], in assay [4], in assay [5] and in assay [7] was > 100 µM (inactive) throughout. Further, the GI50 in assay [8], in assay [9], in assay [10], in assay [11], in assay [12] and in [13] was > 100 µM (inactive) in each case. Further, the GI50 in assay [14], in [15], in [16] and in [17] was > 100 µM (inactive) in each case.
Turning to `CCOC(=O)[C@H]1Nc2ccc(O)cc2C2c3ccccc3CC21` (stereo partly specified), the GI50 in [1] was > 100 µM (inactive); in [2], 33 µM (inactive); in assay [3] it was > 100 µM (inactive); in assay [5], 37.7 µM (inactive); in [6], 34.8 µM (inactive); in [7], 43.2 µM (inactive). Further, the GI50 in assay [8] is > 100 µM (inactive); in assay [9] it was 51.3 µM (inactive); in assay [10], > 100 µM (inactive); in assay [11], 98.2 µM (inactive); in [12], 35.2 µM (inactive); in assay [13] it was > 100 µM (inactive). Further, the GI50 in assay [14] is 87.1 µM (inactive); in assay [15], > 100 µM (inactive); in assay [16], 88.7 µM (inactive); in assay [17], > 100 µM (inactive); in [18], 33.3 µM (inactive).
With `Cc1ccc(S(=O)(=O)NC2(C=O)CCC(C(C)(C)C)CC2)cc1` (stereo unspecified), the GI50 in assay [1] was > 100 µM (inactive); in assay [2] it was 16.5 µM (inactive); in [3], 37.7 µM (inactive); in assay [5], 34.9 µM (inactive); in [7], 19.1 µM (inactive); in assay [8], 44.6 µM (inactive). For the same molecule, the GI50 is 39 µM (inactive) in assay [9]; 44.6 µM (inactive) in [10]; 38.1 µM (inactive) in assay [11]; 24.5 µM (inactive) in [12]; 33.8 µM (inactive) in [13]; 26.1 µM (inactive) in [14]. The GI50 is 30.7 µM (inactive) in assay [19]; 79.3 µM (inactive) in [15]; 34.3 µM (inactive) in assay [16]; 32.1 µM (inactive) in [17]; 21.9 µM (inactive) in assay [18].
As to `CCCC(S(=O)(=O)c1ccccc1)S(=O)(=O)c1ccccc1`, the GI50 in assay [1], in assay [2], in [3], in [4], in [5] and in assay [6] was > 100 µM (inactive) throughout. Also, the GI50 in [7], in assay [8], in assay [9], in assay [10], in assay [11] and in [12] was > 100 µM (inactive) each time. In addition, the GI50 in assay [13], in [15], in assay [16], in assay [17] and in assay [18] was > 100 µM (inactive) each time.
Consider `C[n+]1c2ccccc2c(CNCC(=O)O)c2ccccc21`, for which the GI50 was 6.27 µM (inactive) in [1]; 0.223 µM (active) in [2]; 5.96 µM (inactive) in [3]; 10.9 µM (inactive) in assay [5]; 0.29 µM (active) in [7]; 2.43 µM (inactive) in [8]. In addition, the GI50 in assay [9] is 1.21 µM (inactive); in assay [10], 2.12 µM (inactive); in assay [11] it was 10.9 µM (inactive); in assay [12], 1.87 µM (inactive); in [13] it was 0.708 µM (active); in assay [14], 0.562 µM (active). For the same molecule, the GI50 in [19] was 0.929 µM (active); in assay [15] it was 15.2 µM (inactive); in assay [16], 3.62 µM (inactive); in [17] it was 0.711 µM (active); in [18], 3.98 µM (inactive).
Regarding `N#CC1=C(c2ccccc2)OC2(N)OC(c3ccccc3)=C(C#N)C12C#N` (stereo unspecified), the GI50 was > 100 µM (inactive) in assay [1]; > 100 µM (inactive) in assay [2]; > 100 µM (inactive) in [3]; 56.1 µM (inactive) in [4]; > 100 µM (inactive) in assay [5]; > 100 µM (inactive) in [6]. In addition, the GI50 is 39.4 µM (inactive) in assay [7]; > 100 µM (inactive) in assay [8]; > 100 µM (inactive) in [9]; > 100 µM (inactive) in assay [10]; 31.5 µM (inactive) in assay [11]; 36.9 µM (inactive) in [12]. Moreover, the GI50 in assay [13], in [14], in [15], in assay [16], in [17] and in [18] was > 100 µM (inactive) in each case.
Regarding `O=c1[nH]cc(F)c(=O)n1C1OC(CO)C(O)C1O` (stereo unspecified), the GI50 in assay [1], in assay [2], in assay [4], in assay [5], in assay [6] and in assay [7] was > 100 µM (inactive) in each case. For the same molecule, the GI50 in assay [8], in assay [11], in assay [12], in assay [13], in [14] and in assay [19] was > 100 µM (inactive) in each case. Besides, the GI50 in [15], in assay [16], in assay [17] and in assay [18] was > 100 µM (inactive) in each case.
